Laboratory results published in article PMC11696429 (ACS Omega, 2024).
Where two headings read alike, the source gives them in different places.

Legend:
Type in all cases: binding
integrin αvβ3 [1] = target: T1, integrin αvβ3 (Homo sapiens, UniProt P05106+P06756)
integrin αvβ3 [2] = target: T1, integrin αvβ3; settings: for IC50: IC50 (competitive displacement), day 7, competitor [^125I]I-echistatin
integrin αvβ3 [3] = target: T1, integrin αvβ3; remark: listed apart in the source

SMILES: N=C(N)NCCC[C@@H]1NC(=O)[C@H](CCCCNC(=O)CCOCCOCCOCCOCCOCCOCCNC(=O)CC[C@H](C(=O)O)N2CCN(CC(=O)O)CCN(CC(=O)O)CC2)NC(=O)[C@@H](Cc2ccccc2)NC(=O)[C@H](CC(=O)O)NC(=O)CNC1=O [NODAGA-PEG5-c(RGDfK), NODAGA-PEG5-c(Arg-Gly-Asp-D-Phe-Lys)]
- IC50 (integrin αvβ3 [1]): 3.08 ± 0.12 µM
- IC50 (integrin αvβ3 [2]; U87MG spheroids generated with collagen-1 supplementation): 20.5 ± 4.41 µM
- IC50 (integrin αvβ3 [2]; U87MG spheroids generated without supplementation): 16.5 ± 2.88 µM
- reduced interaction in 3D spheroids compared to 2D monolayer (fold) (integrin αvβ3 [2]; IC50 in 3D U87MG spheroids vs 2D monolayer cell system): 5–7 fold
- IC50 (integrin αvβ3 [3]): 10.4 ± 0.89 µM
- change of IC50 value by BME (integrin αvβ3 [3]; 2D monolayer with BME vs without BME supplementation): triplication
